Experimental data as given in paper PMC5663708, “Novel Benzylidene Thiazolidinedione Derivatives as Partial PPARγ Agonists and their Antidiabetic Effects on Type 2 Diabetes” (Scientific Reports, 2017).

What was measured:
[1] = tested on: HepG2 human hepatocellular liver carcinoma cell line; assay: XTT in vitro hepatotoxicity assay on HepG2 cells; format: cell-based; details: at 1000 μM
Method: (§1) HepG2 cells are considered as a useful model to study in vitro xenobiotic metabolism and liver toxicity. In particular, HepG2 cells are able to activate and detoxify xenobiotics and, they are the reason why these cells are intensively used in toxicology[58],[59]. Hepatotoxicity was determined using the XTT assay.
(§2) The final DMSO concentration was set at <0.1%. Rosiglitazone and Pioglitazone were used as positive controls. IC50 values and cell viability % were calculated.

[2] = tested on: STZ-NA-induced diabetic rats; assay: Antidiabetic activity in STZ-NA-induced type 2 diabetic rats; details: for HbA1c / blood glucose levels / HDL-C / Hb levels / TC, TG, VLDL-C and LDL-C: 15 days; for blood glucose levels: vs diabetic control rats; for HDL-C / Hb levels / TC, TG, VLDL-C and LDL-C: vs disease control (STZ + NA)
Method: The test dose was fixed based on the predicted LD50 value. […] Diabetic rats were orally treated with the test compounds at a dose of 36 mg/kg body weight for a period of 15 days. Fasting blood glucose of control, diabetic-untreated and diabetic-treated rats were tested on Days 1, 3, 7 and 15 of the treatment period (Fig. 6A).
Male Wistar strain rats weighing about 160–200 g were used for animal studies. […] Rats were provided with rodent diet and water ad libitum. […] The animals were allowed to drink 5% glucose solution overnight to prevent STZ-NA-induced hypoglycemia[82],[83]. The rats were considered as diabetic if their blood glucose levels were above 250 mg/dL on the 3rd day after STZ-NA injection. The rats were divided into four groups of six animals in each group. Control animals received normal saline (Group I). Diabetic rats received STZ-NA injection (Group II). […] The blood glucose level of each group was checked at 1, 3, 7 and 15 Day by withdrawing blood from tail vein of the animal using glucose meter (ACCu-Chek active, Roche, Diagnostics USA).
After pharmacological screening for antidiabetic activity, the animals were subjected to overnight fasting and blood was collected from retro-orbital region under light anaesthesia for performing various biochemical experiments. All the biochemical experiments were performed using commercially available kits. Total Hb was estimated by cyanomethaemoglobin method, while HbA1c was estimated from whole blood using commercially available kits following the manufacturer guidelines (ERBA Diagnostics Inc, Accurex Biomedical Pvt. Ltd., Coral clinical systems, India). TG concentration was determined by GPO-POD enzymatic-colorimetric method. TC level was measured by the end point, CHOD-POD colorimetric methods. HDL-C was assayed by the method reported earlier. VLDL-C and LDL-C in plasma were calculated by the Friedewald formula: VLDL-C = TG/5; LDL-C = TC-(HDL-C + VLDL-C)[88]. Levels of serum urea, uric acid, and creatinine were measured using commercially available kits[89].
Rats were sacrificed under light anesthesia using diethylether at the end of the pharmacological and biochemical studies. […] Then, the tissue was sliced out into sections of 5 µm thickness by a rotator microtome and stained with hematoxylin-eosin. Obtained sections were examined by a Leica DME microscope, and representative photomicrographs were taken by a 7.1 megapixel Canon Power Shot S70 digital camera.

[3] = tested on: Caco-2 monolayers; assay: In vitro Caco-2 permeability; format: in vitro ADME
Method: (§3) The oral bioavailability of compounds in terms of Caco-2 and MDCK-II permeability and the P-glycoprotein (P-gp) efflux ratio were assessed. The in vitro intrinsic half-life (T1/2,int) and the apparent intrinsic clearance (CLint,app) of compounds were also measured after incubation with human liver microsomes at 37.5 °C[65]. […] Quantification was done by LC-MS/MS. P-gp substrate activity was assessed by the efflux ratio (the ratio of Papp in the B-to-A direction over that in the A-to-B direction). […] P-gp is an ATP-dependent transporter on the apical plasma membrane of enterocytes that functions to limit the entry of drugs into the cell.

[4] = tested on: MDCK-II monolayers; assay: In vitro MDCK-II permeability; format: in vitro ADME
Method: as §3, with “assessed.” for “assessed. The in vitro intrinsic half-life (T1/2,int) and the apparent intrinsic clearance (CLint,app) of compounds were also measured after incubation with human liver microsomes at 37.5 °C[65].”

[5] = XTT in vitro hepatotoxicity assay on HepG2 cells; format: cell-based, human; details: human, highest tested concentration (1000 μM), read-out: cell viability
Method: as §1, §2

[6] = In vitro Caco-2 permeability; format: in vitro ADME; details: human; for Papp A→B at 150 min, 2 µM / Papp B→A at 150 min, 2 µM: Caco-2, 2 µM, pH 6.5/7.4, n = 2; for Papp at 150 min, 2 µM: Caco-2, based on Papp,A-B, read-out: Permeability Rank
Method: as §3

[7] = tested on: P-gp; assay: In vitro Caco-2 permeability; format: in vitro ADME; details: human; Caco-2, 2 µM, 150 min; read-out: Efflux Ratio (B > A/A > B)
Method: as §3

[8] = In vitro MDCK-II permeability; format: in vitro ADME; details: dog; for Papp A→B at 150 min, 2 µM / Papp B→A at 150 min, 2 µM: pH 7.4/7.4, n = 2; for Papp at 150 min, 2 µM: based on Papp,A-B, read-out: Permeability Rank
Method: as §3, with “assessed.” for “assessed. The in vitro intrinsic half-life (T1/2,int) and the apparent intrinsic clearance (CLint,app) of compounds were also measured after incubation with human liver microsomes at 37.5 °C[65].”

[9] = 36 mg/kg, light microscopy, hematoxylin-eosin
[10] = Caco-2, 2 µM, 150 min, pH 6.5/7.4, n = 2
[11] = 2 µM, 150 min, pH 7.4/7.4, n = 2

Row | Structure (SMILES) | cell viability compared with Rosiglitazone [1] | HbA1c ([2]; 36 mg/kg oral) | blood glucose levels ([2]; 36 mg/kg oral) | HDL-C ([2]; 36 mg/kg oral) | Hb levels ([2]; 36 mg/kg oral) | TC, TG, VLDL-C and LDL-C ([2]; 36 mg/kg oral) | histological changes of pancreas (islets, β-cells) [2, 9] | Papp A→B at 150 min, 2 µM [6] [×10⁻⁶ cm/s] | Papp B→A at 150 min, 2 µM [6] [×10⁻⁶ cm/s] | Papp at 150 min, 2 µM [6] [×10⁻⁶ cm/s] | efflux ratio at 150 min, 2 µM [7] | Papp A→B at 150 min, 2 µM [8] [×10⁻⁶ cm/s] | Papp B→A at 150 min, 2 µM [8] [×10⁻⁶ cm/s] | Papp at 150 min, 2 µM [8] [×10⁻⁶ cm/s] | also measured
1 | CCCCNC(=O)CN1C(=O)S/C(=C\c2ccccc2)C1=O [1a] | did not show any significant difference | significantly prevented the increase | significantly reduced | increase | significant increase | significant decrease | restored to near normal | – | – | – | – | – | – | – | liver histopathology [2, 9]: no hepatic abnormalities; Avg Papp A to B [3, 10]: 2.4 ×10⁻⁶ cm/s; Avg Papp B to A [3, 10]: 14.3 ×10⁻⁶ cm/s; Permeability Rank ([3]; Caco-2, based on Papp,A-B): Low (Low, Papp,A-B < 5 × 10^−6 cm/sec); Avg Papp A to B [4, 11]: 1.8 ×10⁻⁶ cm/s; Avg Papp B to A [4, 11]: 2.5 ×10⁻⁶ cm/s; Permeability Rank ([4]; based on Papp,A-B): Low (Low, Papp,A-B < 5 × 10^−6 cm/sec)
2 | CCN(CC)C(=O)CN1C(=O)S/C(=C\c2ccccc2)C1=O [1i] | – | significantly prevented the increase | significantly reduced | increase | significant increase | significant decrease | restored to near normal | 23 | 51.2 | ≥ 5 | 2.7 | 16.3 | 11.9 | ≥ 5 | viability at 1000 µM [5]: 64 ± 3.93%
3 | CCCCNC(=O)CN1C(=O)S/C(=C\c2ccc(Cl)cc2)C1=O [3a] | did not show any significant difference | significantly prevented the increase | significantly reduced | increase | significant increase | significant decrease | restored to near normal | 1.6 | 19.3 | < 5 | 3.2 | 0.8 | 0.4 | < 5 | blood glucose lowering activity compared with standard ([2]; 36 mg/kg oral, data for 15th Day): equivalent to the standard drug Pioglitazone
